# Assay results published in patent USRE30241E, “Esters of 3-(hydroxy or hydroxymethyl)-4-hydroxyphenyl aminomethyl ketones” (Sterling Drug Inc., priority 1970, dated 1980).
# Like-named read-outs stand apart in the source and are kept apart here.
# Legend:
# [1] = test system: carbachol- or histamine-induced bronchoconstriction; test: Bronchodilator Test Method I, anesthetized dog, intraduodenal activity; format: in vivo; details: Canis lupus familiaris, read-out: Bronchodilation; for inhibition in vivo at 0.035 mg/kg: 35 mcg/kg (salt) intraduodenal; for inhibition in vivo at 0.07 mg/kg: 70 mcg/kg (salt) intraduodenal; for inhibition in vivo at 0.28 mg/kg: 280 mcg/kg (salt) intraduodenal; for inhibition in vivo at 0.032 mg/kg: 32 mcg/kg (salt) intraduodenal; for inhibition in vivo at 0.128 mg/kg: 128 mcg/kg (salt) intraduodenal
# In short: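 Pentobarbital-anesthetized (30 mg/kg i.v.) open-chest dogs of 9-18 kg, artificially ventilated; airway pressure recorded via tracheal cannula transducer. Test solution injected intraduodenally; from 5 min, i.v. carbachol (4-6 μg/kg) or histamine diphosphate (35-45 μg/kg) challenges every 30-60 min gauged degree and duration of bronchodilation.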
# [2] = test system: heart rate; test: Cardiovascular studies: effect on the heart rate in the anesthetized dog; format: in vivo
# In short: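 Anesthetized dogs, mostly spontaneously breathing, some open-chest, given rapid intravenous injections. Heart rate by electrocardiograph with blood pressure recorded simultaneously, every 0.5-1 minute for 10 minutes then every 2-5 minutes until recovery; several doses or compounds sometimes tested alternately in one dog.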
# [3] = test system: guinea pig bronchioles constricted by carbachol; test: Bronchodilator Test Method II, in vitro perfused guinea pig lung; details: for ED50: carbachol (Doryl) 1:5 million
# Method: In this method bronchodilator activity in vitro was determined by testing the effect of graded doses of the test compounds on guinea pig bronchioles constricted by carbachol, using the technique reported by Sollman and von Oettingen, Proc. Soc, Exp. Biol. Med., 25,692 (1928) as modified by Tainter, Pedden, and James, J. Pharm. Exp. Ther., 51, 371 (1934) and by Luduena, von Euler, Tullar, and Lands, Arch. intern. Pharmacol., III, 392 (1957).
# [4] = Stability of test solutions; details: ethylenediaminetetraacetic acid added; distilled water or saline solutions
# [5] = test system: carbachol- or histamine-induced bronchoconstriction; test: Bronchodilator Test Method I, anesthetized dog, intravenous activity; format: in vivo; details: Canis lupus familiaris; for inhibition in vivo at 0.002 mg/kg: 2 mcg/kg i.v.; for inhibition in vivo at 0.032 mg/kg: 32 mcg/kg i.v.; for inhibition in vivo at 0.128 mg/kg: 128 mcg/kg i.v.
# In short: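 Pentobarbital-anesthetized (30 mg/kg i.v.), open-chest, artificially ventilated dogs were given i.v. carbachol (4-6 µg/kg) or histamine diphosphate (35-45 µg/kg). Test compound was given i.v. mixed with, after, or 1-10 min before the constrictor.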
# [6] = test system: diastolic blood pressure; test: Effect on diastolic blood pressure in the anesthetized dog; format: in vivo
# Method: The effect of a rapid intravenous injection on the heart rate the heart rate was conducted in anesthetized dogs under normal respiration. A few open-chest dogs were also tested. Increase in heart rate was measured by using an electrocardiograph attached to the dog. Readings were taken every 0.5-1 minute for the first 10 minutes and every 2-5 minutes thereafter until recovery. In some cases, several doses and more than one compound were tested alternately in the same dog. The blood pressure effect was simultaneously recorded.
# [7] = 5 min, 5 min, read-out: Bronchodilatation
# [8] = 5 min, 8 mcg/kg i.v., 5 min, read-out: Bronchodilatation
# [9] = 0.5 h, 30 min, read-out: Bronchodilatation
# [10] = 0.5 h, 8 mcg/kg i.v., 30 min, read-out: Bronchodilatation
# [11] = 1 h, 8 mcg/kg i.v., 60 min, read-out: Bronchodilatation
# [12] = 1 h, 60 min, read-out: Bronchodilatation
# [13] = 2 h, 120 min, read-out: Bronchodilatation
# [14] = 3 h, 180 min, read-out: Bronchodilatation
# [15] = 4 h, 240 min, read-out: Bronchodilatation
smiles,measurement,setting,value
"CC(C)(C)NCC(O)c1ccc(O)c(O)c1 (stereo not drawn) [Ref. Cpd. I, 3,4-Dihydroxy-alpha-(tert-butylaminomethyl)benzyl alcohol, reference compound]",inhibition in vivo at 0.035 mg/kg,"[1]; 10 min, 10 min",34%
same,inhibition in vivo at 0.07 mg/kg,"[1]; 10 min, 10 min",40%
same,inhibition in vivo at 0.28 mg/kg,"[1]; 10 min, 10 min",66%
same,inhibition in vivo at 0.035 mg/kg,"[1]; 0.5 h, 30 min",41%
same,inhibition in vivo at 0.07 mg/kg,"[1]; 0.5 h, 30 min",60%
same,inhibition in vivo at 0.28 mg/kg,"[1]; 0.5 h, 30 min",59%
same,inhibition in vivo at 0.035 mg/kg,"[1]; 1 h, 60 min",44%
same,inhibition in vivo at 0.07 mg/kg,"[1]; 1 h, 60 min",35%
same,inhibition in vivo at 0.28 mg/kg,"[1]; 1 h, 60 min",46%
same,inhibition in vivo at 0.035 mg/kg,"[1]; 2 h, 120 min",27%
same,inhibition in vivo at 0.07 mg/kg,"[1]; 2 h, 120 min",30%
same,inhibition in vivo at 0.28 mg/kg,"[1]; 2 h, 120 min",54%
same,inhibition in vivo at 0.035 mg/kg,"[1]; 3 h, 180 min",3%
same,inhibition in vivo at 0.28 mg/kg,"[1]; 3 h, 180 min",30%
same,inhibition in vivo at 0.07 mg/kg,"[1]; 4 h, 240 min",0%
same,Mean Maximal Increase in the Heart Rate,[2]; 0.17 mcg/kg (salt) i.v.,20%
same,Mean Maximal Increase in the Heart Rate,[2]; 0.35 mcg/kg (salt) i.v.,32%
same,Mean Maximal Increase in the Heart Rate,[2]; 0.7 mcg/kg (salt) i.v.,44%
same,ED50,[3],0.18 µg (base)
same,"Duration, Mean",[3]; dose 0.32 mcg (base),5 ± 1.4 min
same,need for stabilizing agent in solution,[4],required to stabilize them
same,inhibition in vivo at 0.00017 mg/kg,"[5]; 1 min, 0.17 mcg/kg i.v., 1-2 min, read-out: Bronchodilatation",22%
same,inhibition in vivo at 0.00035 mg/kg,"[5]; 1 min, 0.35 mcg/kg i.v., 1-2 min, read-out: Bronchodilatation",57%
same,Mean Decrease in Diastolic Blood Pressure,[6]; 0.17 meg/kg (salt) i.v.,13%
same,Mean Decrease in Diastolic Blood Pressure,[6]; 0.35 meg/kg (salt) i.v.,33%
same,Mean Decrease in Diastolic Blood Pressure,[6]; 0.7 meg/kg (salt) i.v.,41%
"CCC(NC(C)C)C(O)c1ccc(O)c(O)c1 (stereo not drawn) [IV, 3,4-Dihydroxy-alpha-[1-(isopropylamino)-propyl]benzyl alcohol, reference compound]",need for stabilizing agent in solution,[4],required to stabilize them
same,inhibition in vivo at 0.002 mg/kg,[5]; [7],32%
same,inhibition in vivo at 0.004 mg/kg,"[5]; 5 min, 4 mcg/kg i.v., 5 min, read-out: Bronchodilatation",72%
same,inhibition in vivo at 0.008 mg/kg,[5]; [8],74%
same,inhibition in vivo at 0.002 mg/kg,[5]; [9],0%
same,inhibition in vivo at 0.004 mg/kg,"[5]; 0.5 h, 4 mcg/kg i.v., 30 min, read-out: Bronchodilatation",31%
same,inhibition in vivo at 0.008 mg/kg,[5]; [10],13%
same,inhibition in vivo at 0.004 mg/kg,"[5]; 1 h, 4 mcg/kg i.v., 60 min, read-out: Bronchodilatation",19%
same,inhibition in vivo at 0.008 mg/kg,[5]; [11],13%
"CNCC(O)c1ccc(O)c(O)c1 (stereo not drawn) [V, 3,4-Dihydroxy-alpha-(methylaminomethyl)benzyl alcohol, reference compound]",need for stabilizing agent in solution,[4],required to stabilize them
same,inhibition in vivo at 0.004 mg/kg,"[5]; 1 min, read-out: Bronchodilatation, 4 mcg/kg i.v., 1-2 min",0%
same,inhibition in vivo at 0.064 mg/kg,"[5]; 1 min, read-out: Bronchodilatation, 64 mcg/kg i.v., 1-2 min",29%
same,inhibition in vivo at 0.004 mg/kg,"[5]; 10 min, read-out: Bronchodilatation, 4 mcg/kg i.v., 10 min",0%
same,inhibition in vivo at 0.008 mg/kg,"[5]; 10 min, read-out: Bronchodilatation, 8 mcg/kg i.v., 10 min",0%
same,inhibition in vivo at 0.008 mg/kg,"[5]; 0.5 h, read-out: Bronchodilatation, 8 mcg/kg i.v., 30 min",0%
same,inhibition in vivo at 0.016 mg/kg,"[5]; 0.5 h, read-out: Bronchodilatation, 16 mcg/kg i.v., 30 min",5%
same,inhibition in vivo at 0.064 mg/kg,"[5]; 0.5 h, read-out: Bronchodilatation, 64 mcg/kg i.v., 30 min",0%
"COc1ccc(C(=O)Oc2ccc(C(O)CNC(C)(C)C)cc2COC(C)=O)cc1 (stereo not drawn) [Example 151, 3-(acetoxymethyl)-4-(p-anisoyloxy)-alpha-(tert-butylaminomethyl)benzyl alcohol]",inhibition in vivo at 0.032 mg/kg,"[1]; 5 min, 5 min",24%
same,inhibition in vivo at 0.128 mg/kg,"[1]; 5 min, 5 min",54%
same,inhibition in vivo at 0.032 mg/kg,"[1]; 0.5 h, 30 min",40%
same,inhibition in vivo at 0.128 mg/kg,"[1]; 0.5 h, 30 min",63%
same,inhibition in vivo at 0.032 mg/kg,"[1]; 1 h, 60 min",36%
same,inhibition in vivo at 0.128 mg/kg,"[1]; 1 h, 60 min",66%
same,inhibition in vivo at 0.032 mg/kg,"[1]; 2 h, 120 min",36%
same,inhibition in vivo at 0.128 mg/kg,"[1]; 2 h, 120 min",66%
same,inhibition in vivo at 0.032 mg/kg,"[1]; 3 h, 180 min",28%
same,inhibition in vivo at 0.128 mg/kg,"[1]; 3 h, 180 min",66%
same,inhibition in vivo at 0.032 mg/kg,"[1]; 5 h, 300 min",20%
same,inhibition in vivo at 0.128 mg/kg,"[1]; 5 h, 300 min",43%
same,Mean Maximal Increase in the Heart Rate,[2]; 32 mcg/kg (salt) i.v.,18 Beats/Minute
same,Mean Maximal Increase in the Heart Rate,[2]; 128 mcg/kg (salt) i.v.,24 Beats/Minute
same,ED50,[3],5.1 µg (base)
same,"Duration, Mean",[3]; dose 10 mcg (base),67.3 ± 33.7 min
same,inhibition in vivo at 0.008 mg/kg,[5]; [8],43%
same,inhibition in vivo at 0.032 mg/kg,[5]; [7],54%
same,inhibition in vivo at 0.128 mg/kg,[5]; [7],85%
same,inhibition in vivo at 0.008 mg/kg,[5]; [10],33%
same,inhibition in vivo at 0.032 mg/kg,[5]; [9],46%
same,inhibition in vivo at 0.128 mg/kg,[5]; [9],81%
same,inhibition in vivo at 0.008 mg/kg,[5]; [11],50%
same,inhibition in vivo at 0.032 mg/kg,[5]; [12],41%
same,inhibition in vivo at 0.128 mg/kg,[5]; [12],81%
same,inhibition in vivo at 0.008 mg/kg,"[5]; 2 h, 8 mcg/kg i.v., 120 min, read-out: Bronchodilatation",43%
same,inhibition in vivo at 0.032 mg/kg,[5]; [13],54%
same,inhibition in vivo at 0.128 mg/kg,[5]; [13],73%
same,inhibition in vivo at 0.008 mg/kg,"[5]; 3 h, 8 mcg/kg i.v., 180 min, read-out: Bronchodilatation",30%
same,inhibition in vivo at 0.032 mg/kg,[5]; [14],21%
same,inhibition in vivo at 0.128 mg/kg,[5]; [14],69%
same,inhibition in vivo at 0.032 mg/kg,[5]; [15],18%
same,inhibition in vivo at 0.128 mg/kg,[5]; [15],64%
same,inhibition in vivo at 0.008 mg/kg,"[5]; 4.5 h, 8 mcg/kg i.v., 270 min, read-out: Bronchodilatation",20%
same,inhibition in vivo at 0.128 mg/kg,"[5]; 4.5 h, 270 min, read-out: Bronchodilatation",52%
same,Mean Decrease in Diastolic Blood Pressure,[6]; 32 meg/kg (salt) i.v.,10%
same,Mean Decrease in Diastolic Blood Pressure,[6]; 128 meg/kg (salt) i.v.,10%
